# Test results from patent US10238688B2, “Combination therapies for bladder cancer” (GENEDIA BIOTECH CO. LTD., priority 2015, dated 2019).
# What was measured:
# [1] = test system: MAPK/ERK pathway; assay: Cignal Finder dual-luciferase pathway reporter, MAPK/ERK; assay type: cell-based, human; conditions: for Relative activity, MAPK/ERK reporter: luc/Renluc relative to negative control reporter, single drug at 4 folds vs EH/Ci/Mi combination
# Experimental: (§1) The pathway analysis was performed with Qiagen's Cignal Finder Pathway Reporter Array systems according to the manufacturer's instructions. The pathway-focused dual-luciferase reporter construct was a mixture of an inducible transcription factor responsive firefly luciferase reporter and constitutively expressing renilla construct. Transcriptional response element (TRE) sequence response elements to each specific transcriptional factor triggered by the different signaling pathways are positioned before the TATA box of firefly luciferase reporter gene. The extent of activity of the reporter reflects the level of activity of the particular signaling pathway. CMV controlled renilla expression vector is co-transfected into the cell as an internal control. Non-inducible reporter construct that lacks the transcriptional factor binding sequence and could not be induced by any transcription factors is used as a negative control. Cells transfected with CMV directed firefly luciferase reporter gene serve as a positive control. Briefly, cells seeded in 6-well plates were transfected with Cignal finder pathway arrays according to the manufacturer's instructions (Qiagen). Then cells were seeded onto 96-well plates. Ci (6000 ng/mL), Mi (800 ng/mL), or EH (1000 ng/mL) and Ci/Mi/EH combination (Ci, 1500 ng/mL, Mi, 800 ng/mL and EH, 1000 ng/m L) were then added to the cells 24 h post-transfection. After 6 h of incubation with the different drugs at 37° C., cells were lysed and a dual luciferase assay (for firefly and renilla luciferase) was performed using a PromegaGloMax 20/20 illuminometer. The firefly luciferase activities were normalized over the renilla luciferase activities after background activity determined by luciferase activities of negative controls was subtracted. A triple test of cell survival under these drug doses was also performed by MTT assay following 18 h incubation at 37° C. […]
# [2] = test system: Hypoxia pathway; assay: Cignal Finder dual-luciferase pathway reporter, Hypoxia; assay type: cell-based, human; parameters: key to Relative activity, Hypoxia reporter: firefly/renilla ratio, background (negative control) subtracted; conditions: for Relative activity, Hypoxia reporter: luc/Renluc relative to negative control reporter, single drug at 4 folds vs EH/Ci/Mi combination
# Experimental: as §1
# [3] = test system: Cell Cycle/pRb-E2F pathway; assay: Cignal Finder dual-luciferase pathway reporter, Cell Cycle/pRb-E2F; assay type: cell-based, human; parameters: key to Relative activity, Cell Cycle/pRb-E2F reporter: firefly/renilla ratio, background (negative control) subtracted; conditions: for Relative activity, Cell Cycle/pRb-E2F reporter: luc/Renluc relative to negative control reporter, single drug at 4 folds vs EH/Ci/Mi combination
# Experimental: as §1
# [4] = test system: SV-HUC-1; assay type: cell-based
# Experimental: (§2) The clinical grade of the chemotherapeutics (NCI Dictionary of Cancer Terms) was provided by the First Affiliated Hospital of Harbin Medical University: Pirarubicin (Pi, Wanle, Shenzhen), Paclitaxel (Pa, Taiji, Sichuan), Adriamycin (Ad, Pfizer, Jiangsu), Epirubicin Hydrochloride (EH, Haizheng, Zhejiang), Hydroxycamptothecin (Hy, Lishizhen, Hubei), Cisplatin (Ci, Haosen, Jiangsu), Gemcitabine (Ge, Haosen, Jiangsu) and Mitomycin (Mi, Haizheng, Zhejiang). The drug induced cell death was determined by a thiazolyl […] (MTT, 490 nm reading) based cell proliferation assay in the cultured cells following treatment by various concentrations of drugs for 72 hours. The relative chemoresistance to each drug of all cell lines was calculated with the lowest IC50 as a reference. The overall chemoresistance of each cell line was described as “chemoresistance index”, the numerator of the total relative IC50 to all the drugs over the number of drugs to rank the overall resistance state of each cell line to the six chemotherapeutics collectively.
# (§3) The relative IC50 (fold) of each drug of all nine cell lines was normalized to the lowest IC50 in the most sensitive cell line (FIG. 2G), to describe the single drug resistance of cell lines. The overall chemoresistance of each cell line, a “chemoresistance index” (the numerator of the total relative IC50 over the number of drugs) (FIG. 2G) were calculated to rank the overall resistance state of each cell line to this six chemotherapeutics.
# [5] = test system: ER Stress pathway; assay: Cignal Finder dual-luciferase pathway reporter, ER Stress; assay type: cell-based, human; conditions: for Relative activity, ER Stress reporter: luc/Renluc relative to negative control reporter, single drug at 4 folds vs EH/Ci/Mi combination
# Experimental: as §1
# [6] = test system: T24; assay: MTT cell survival / IC50, T24 cells; assay type: cell-based, human
# Experimental: as §2, §3
# (§4) Twenty six-drug combinations at the indicated doses were initially generated through a random number generator (using MATLAB MathWorks©, Natick, Mass., U.S.) (The upper half of Table 1). The cell survival (% over the not drug control) of treated cells was determined and then used for a calculation of the average cumulative cell survival (%, ACS: the sum of cell survival (%) per combination divided by the number of cell lines tested). ACS<30% was used to separate the effective from the not-effective combinations.
# [7] = test system: 5637; assay: MTT cell survival / IC50, 5637 cells; assay type: cell-based, human
# Experimental: as §2, §3, §4
smiles,measurement,setting,value
"COc1cccc2c1C(=O)c1c(O)c3c(c(O)c1C2=O)C[C@@](O)(C(=O)CO)C[C@@H]3[C@@H]1C[C@H](N)[C@@H](O)[C@H](C)O1 [EH, (8R,10S)-10-((2S,4S,5R,6S)-4-amino-5-hydroxy-6-methyltetrahydro-2H-pyran-2-yl)-6,8,11-trihydroxy-8-(2-hydroxyacetyl)-1-methoxy-7,8,9,10-tetrahydrotetracene-5,12-dione]","relative drug trigged pathway activity over the no-drug level, MAPK/ERK",[1]; 5637 cells,2.26 fold
same,"Relative activity, MAPK/ERK reporter",[1]; 5637 cells,117.70
same,"digitalized pathway activity, MAPK/ERK",[1]; Biu87 cells,0 (null (0) if neither of the above holds)
same,"relative drug trigged pathway activity over the no-drug level, MAPK/ERK",[1]; Biu87 cells,1.24 fold
same,"Relative activity, MAPK/ERK reporter",[1]; Biu87 cells,608.33
same,"digitalized pathway activity, MAPK/ERK",[1]; H-bc cells,0 (null (0) if neither of the above holds)
same,"relative drug trigged pathway activity over the no-drug level, MAPK/ERK",[1]; H-bc cells,0.75 fold
same,"Relative activity, MAPK/ERK reporter",[1]; H-bc cells,95.16
same,"digitalized pathway activity, MAPK/ERK",[1]; SV-HUC-1 cells,0 (null (0) if neither of the above holds)
same,"relative drug trigged pathway activity over the no-drug level, MAPK/ERK",[1]; SV-HUC-1 cells,0.95 fold
same,"Relative activity, MAPK/ERK reporter",[1]; SV-HUC-1 cells,225.00
same,"Relative activity, MAPK/ERK reporter",[1]; UM-UC-3 cells,183.22
same,"relative drug trigged pathway activity over the no-drug level, MAPK/ERK",[1]; Um-Uc-3 cells,1.29 fold
same,"relative drug trigged pathway activity over the no-drug level, Hypoxia",[2]; 5637 cells,2.27 fold
same,"Relative activity, Hypoxia reporter",[2]; 5637 cells,51.46
same,"relative drug trigged pathway activity over the no-drug level, Hypoxia",[2]; Biu87 cells,2.26 fold
same,"Relative activity, Hypoxia reporter",[2]; Biu87 cells,17.13
same,"relative drug trigged pathway activity over the no-drug level, Hypoxia",[2]; H-bc cells,1.72 fold
same,"Relative activity, Hypoxia reporter",[2]; H-bc cells,57.60
same,"relative drug trigged pathway activity over the no-drug level, Hypoxia",[2]; SV-HUC-1 cells,1.74 fold
same,"Relative activity, Hypoxia reporter",[2]; SV-HUC-1 cells,44.00
same,"digitalized pathway activity, Hypoxia",[2]; UM-UC-3 cells,0 (null (0) if neither of the above holds)
same,"Relative activity, Hypoxia reporter",[2]; UM-UC-3 cells,73.93
same,"relative drug trigged pathway activity over the no-drug level, Hypoxia",[2]; Um-Uc-3 cells,1.18 fold
same,"relative drug trigged pathway activity over the no-drug level, Cell Cycle/pRb-E2F",[3]; 5637 cells,5.15 fold
same,"Relative activity, Cell Cycle/pRb-E2F reporter",[3]; 5637 cells,4.67
same,"relative drug trigged pathway activity over the no-drug level, Cell Cycle/pRb-E2F",[3]; Biu87 cells,3.95 fold
same,"Relative activity, Cell Cycle/pRb-E2F reporter",[3]; Biu87 cells,2.24
same,"digitalized pathway activity, Cell Cycle/pRb-E2F",[3]; H-bc cells,0 (null (0) if neither of the above holds)
same,"relative drug trigged pathway activity over the no-drug level, Cell Cycle/pRb-E2F",[3]; H-bc cells,1.47 fold
same,"Relative activity, Cell Cycle/pRb-E2F reporter",[3]; H-bc cells,4.44
same,"relative drug trigged pathway activity over the no-drug level, Cell Cycle/pRb-E2F",[3]; SV-HUC-1 cells,2.45 fold
same,"Relative activity, Cell Cycle/pRb-E2F reporter",[3]; SV-HUC-1 cells,12.00
same,"Relative activity, Cell Cycle/pRb-E2F reporter",[3]; UM-UC-3 cells,17.25
same,"relative drug trigged pathway activity over the no-drug level, Cell Cycle/pRb-E2F",[3]; Um-Uc-3 cells,2.91 fold
same,Single drug 4X Cell Survival (%),"[4]; SV-HUC-1, ng/ml: EH 1000, Ci 6000, Mi 800, Pi 160, Pa 640, Ge 20, EH/Ci/Mi regimen",61.89%
same,Cell survival 72 hours,"[4]; SV-HUC-1 cells, Table 4 (A)",61.89%
same,ACS (%),"[4]; SV-HUC-1 cells, Table 4 (B)",61.89%
same,"relative drug trigged pathway activity over the no-drug level, ER Stress",[5]; 5637 cells,3.26 fold
same,"Relative activity, ER Stress reporter",[5]; 5637 cells,84.76
same,"relative drug trigged pathway activity over the no-drug level, ER Stress",[5]; Biu87 cells,1.66 fold
same,"Relative activity, ER Stress reporter",[5]; Biu87 cells,36.36
same,"digitalized pathway activity, ER Stress",[5]; H-bc cells,0 (null (0) if neither of the above holds)
same,"relative drug trigged pathway activity over the no-drug level, ER Stress",[5]; H-bc cells,1.38 fold
same,"Relative activity, ER Stress reporter",[5]; H-bc cells,28.61
same,"relative drug trigged pathway activity over the no-drug level, ER Stress",[5]; SV-HUC-1 cells,2.93 fold
same,"Relative activity, ER Stress reporter",[5]; SV-HUC-1 cells,300.00
same,"digitalized pathway activity, ER Stress",[5]; UM-UC-3 cells,0 (null (0) if neither of the above holds)
same,"Relative activity, ER Stress reporter",[5]; UM-UC-3 cells,120.98
same,"relative drug trigged pathway activity over the no-drug level, ER Stress",[5]; Um-Uc-3 cells,1.48 fold
same,Cell survival (%),"[6]; Table S3, ng/ml: Pi 40, Pa 160, EH 250, Ci 1500, Mi 200, 1=Ci/Mi, 2=EH/Ci/Mi, 3=Pa/Ci/Mi, 4=Pi/Ci/Mi",20.13%
same,Single drug 4X Cell Survival (%),"[6]; ng/ml: EH 1000, Ci 6000, Mi 800, Pi 160, Pa 640, Ge 20, EH/Ci/Mi regimen",17.79%
same,Cell survival (%),"[7]; 5637, Table S3, ng/ml: Pi 40, Pa 160, EH 250, Ci 1500, Mi 200, 1=Ci/Mi, 2=EH/Ci/Mi, 3=Pa/Ci/Mi, 4=Pi/Ci/Mi",14.75%
same,Single drug 4X Cell Survival (%),"[7]; 5637, ng/ml: EH 1000, Ci 6000, Mi 800, Pi 160, Pa 640, Ge 20, EH/Ci/Mi regimen",2.23%
same,Cell survival 72 hours,"[7]; 5637 cells, Table 4 (A)",2.23%
same,ACS (%),"[7]; 5637 cells, Table 4 (B)",2.23%
